Data from patent publication US20220281865A1, “DIHYDROPYRIMIDINE DERIVATIVES AND USES THEREOF IN THE TREATMENT OF HBV INFECTION OR OF HBV-INDUCED DISEASES” (Janssen Sciences Ireland Unlimited Company, priority 2019, published 2022).

Key:
[1] = tested on: HBV; assay: Anti-HBV activity in HepG2.2.15 cells (HBV DNA in culture medium by qPCR); format: cell-based; conditions: Hepatitis B virus, 144 h, 6 days treatment
Procedure: (§1) HepG2.2.15 (the HepG2.2.15 cell line can be produced by transfection of the HepG2 cell line as described in Sells, Chen, and Acs 1987 (Proc. Natl. Acad. Sci. USA 84: 1005-1009), and the HepG2 cell line is available from ATCC® under number HB-8065™)
(§2) HepG2.2.15 cells were plated into 96-well plate in 2% FBS culture medium at the density of 40,000 cells/well and 5,000 cells/well for HBV inhibitory activity and cytotoxicity determination, respectively. After incubation at 37° C., 5% CO2 overnight, cells were treated with medium containing compounds for 6 days with medium and compounds refreshed after 3 days of treatment. Each compound was tested in a 1:3 serial dilutions at 8 different concentrations in triplicate. The highest concentration of the compounds was 10 uM or 1 uM for anti-HBV activity assay and 100 uM for cytotoxicity determination.
The change of HBV DNA level induced by the compounds was assessed by quantitative real-time polymerase chain reaction (qPCR). Briefly, the HBV DNA in the culture medium was extracted using QIAamp 96 DNA Blood Kit according to the manual and then quantified by real-time PCR assay using the primers and probe in the table 1 below.
(§3) EC50 and CC50 values are calculated by the GRAPHPAD PRISM software.

[2] = Cytotoxicity determination in HepG2.2.15 cells (CCK-8 cell viability); format: cell-based; conditions: human, 6 days treatment, CCK-8 assay
Procedure: as §1, §2
Cell viability was determined by CCK-8 assay. After 6 days of compounds treatment, 20 μl CCK-8 reagents were added to each well of cytotoxicity assay plates. Cell plates were incubated at 37° C., 5% CO2 for 2.5 h. The absorbance at 450 nm wavelength and the absorbance at 630 nm wavelength as reference was measured.
as §3

SMILES | EC50 [1] | CC50 at 6 days [2]
CCOC(=O)C1=C(CN2CC(F)(F)[C@H]3CCN(CC(C)(C)C(=O)O)C(=O)[C@H]32)NC(c2nccs2)=N[C@H]1c1cccc(F)c1C (single isomer, unassigned) [Compound I-1, 3-((3aS*,7aS*)-1-(((S)-5-(ethoxycarbonyl)-6-(3-fluoro-2-methylphenyl)-2-(thiazol-2-yl)-3,6-dihydropyrimidin-4-yl)methyl)-3,3-difluoro-7-oxohexahydro-1H-pyrrolo[2,3-c]pyridin-6(2H)-yl)-2,2-dimethylpropanoic acid] | 0.06 µM | 32 µM
CCOC(=O)C1=C(CN2CC(F)(F)[C@H]3CC(=O)N(CC(C)(C)C(=O)O)C[C@H]32)NC(c2nccs2)=N[C@H]1c1cccc(F)c1C (single isomer, unassigned) [Compound I-2, 3-((3aS*,7aS*)-1-(((S)-5-(ethoxycarbonyl)-6-(3-fluoro-2-methylphenyl)-2-(thiazol-2-yl)-3,6-dihydropyrimidin-4-yl)methyl)-3,3-difluoro-5-oxohexahydro-1H-pyrrolo[2,3-c]pyridin-6(2H)-yl)-2,2-dimethylpropanoic acid] | 0.034 µM | 50.4 µM
CCOC(=O)C1=C(CN2CC(F)(F)[C@H]3CCN(C(=O)C(C)(C)C(=O)O)C[C@H]32)NC(c2nccs2)=N[C@H]1c1cccc(F)c1C (single isomer, unassigned) [Compound I-3, 3-((3aS*,7aS*)-1-(((S)-5-(ethoxycarbonyl)-6-(3-fluoro-2-methylphenyl)-2-(thiazol-2-yl)-3,6-dihydropyrimidin-4-yl)methyl)-3,3-difluorohexahydro-1H-pyrrolo[2,3-c]pyridin-6(2H)-yl)-2,2-dimethyl-3-oxopropanoic acid] | 0.21 µM | 30 µM
CCOC(=O)C1=C(CN2CC(F)(F)[C@H]3C(=O)N(CC(C)(C)C(=O)O)CC[C@H]32)NC(c2nccs2)=N[C@H]1c1cccc(F)c1C (single isomer, unassigned) [Compound I-5, 3-((3aR*,7aR*)-1-(((S)-5-(ethoxycarbonyl)-6-(3-fluoro-2-methylphenyl)-2-(thiazol-2-yl)-3,6-dihydropyrimidin-4-yl)methyl)-3,3-difluoro-4-oxohexahydro-1H-pyrrolo[3,2-c]pyridin-5(6H)-yl)-2,2-dimethylpropanoic acid] | 0.048 µM | 47.1 µM
CCOC(=O)C1=C(CN2CC(F)(F)[C@H]3CN(CC(C)(C)C(=O)O)CC[C@H]32)NC(c2nccs2)=N[C@H]1c1cccc(F)c1C (single isomer, unassigned) [Compound I-6, 3-((3aS*,7aR*)-1-(((S)-5-(ethoxycarbonyl)-6-(3-fluoro-2-methylphenyl)-2-(thiazol-2-yl)-3,6-dihydropyrimidin-4-yl)methyl)-3,3-difluorohexahydro-1H-pyrrolo[3,2-c]pyridin-5(6H)-yl)-2,2-dimethylpropanoic acid] | 0.081 µM | 43.4 µM
CCOC(=O)C1=C(CN2CC(F)(F)[C@H]3CN(C(=O)C(C)(C)C(=O)O)CC[C@H]32)NC(c2nccs2)=N[C@H]1c1cccc(F)c1C [Compound I-4, 3-((cis)-1-(((S)-5-(ethoxycarbonyl)-6-(3-fluoro-2-methylphenyl)-2-(thiazol-2-yl)-3,6-dihydropyrimidin-4-yl)methyl)-3,3-difluorohexahydro-1H-pyrrolo[3,2-c]pyridin-5(6H)-yl)-2,2-dimethyl-3-oxopropanoic acid] | 0.081 µM | 34.4 µM
